Consider 6 compounds from patent publication US12180207B2 (ARRAY BIOPHARMA INC., priority 2018, dated 2024).

For assay [1], the target named is phosphorylated FGFR3 (SEQ ID NO: 5, amino acids 449 to 759) (Homo sapiens (Human), UniProt P22607). Kind of assay: FGFR enzyme binding assay (HTRF tracer displacement), FGFR3. As to conditions: 5 nM phosphorylated FGFR3, average of multiple determinations if made. The essentials: (§1)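 Kinase and tracer were incubated with compound for 60 minutes at 22° C. Tracer displacement was then measured by HTRF, and results were expressed as POC with 1 μM control inhibitor defining full displacement.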
Chain of phosphorylated FGFR3 (SEQ ID NO: 5, amino acids 449 to 759) (P22607 449-759): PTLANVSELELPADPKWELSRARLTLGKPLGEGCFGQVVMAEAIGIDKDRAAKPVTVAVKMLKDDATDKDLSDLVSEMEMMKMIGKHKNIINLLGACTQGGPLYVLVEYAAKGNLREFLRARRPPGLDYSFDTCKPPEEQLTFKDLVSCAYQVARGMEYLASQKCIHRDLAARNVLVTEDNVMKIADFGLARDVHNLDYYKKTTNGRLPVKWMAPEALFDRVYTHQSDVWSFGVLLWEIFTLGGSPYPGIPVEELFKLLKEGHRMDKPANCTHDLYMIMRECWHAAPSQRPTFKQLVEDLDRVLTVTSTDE
Background: In TR-FRET formats the signal depends on donor and acceptor labels being close together.

For assay [2], the target named is T1, HEK-293 cells transfected with dox-inducible human wild type FGFR3 (Homo sapiens (Human), UniProt P22607). Kind of assay: FGFR3 pFGFR cell assay (ELISA). It counts as cell-based. As to conditions: HEK-293 dox-inducible FGFR3, 1 hour compound, 100 ng/ml FGF-acidic. The method, then:
FGFR3 pFGFR Cell Assay: • HEK-293 cells transfected with dox-inducible human wild type FGFR3 (SEQ ID NO: 5) were plated in a collagen or poly-D-lysine coated 96 well flat bottom plates at 4×10^5 cells/well in complete DMEM medium containing 10% FBS and 1 μg/ml doxycycline and allowed to attach for 24 h at 37° C., 5% CO2. Cells were treated with compound using 1:3 serial dilutions with a top final concentration of 5 μM. Compound was incubated on cells for 1 hour at 37° C., 5% CO2. Cells were then stimulated with a final concentration of 100 ng/ml human FGF-acidic for 5 minutes at 37° C., 5% CO2. Medium was removed and cells were lysed with lysis buffer containing phosphatase and protease inhibitors. Phospho FGFR3 was measured by ELISA (R&D Systems cat DYC2719). The ELISA captures total FGFR3 and detects total phospho tyrosine. Optical density was measured for each well using a Versamax reader at a wavelength of 450 nm. 100 POC was determined using no test compounds and 0 POC was determined using a control compound. The POC values were fit to a 4-parameter logistic curve as a function of the concentration of the compound, and the IC50 value is the point where the curve crosses 50 POC.
A general note: In an ELISA, binding on a coated surface is turned into a signal by an enzyme label.

Assay [3] concerns the target recombinant human FGFR3 (amino acids R397-T806) (Homo sapiens (Human), UniProt P22607). Kind of assay: FGFR3 enzyme activity assay (LanthaScreen TR-FRET). The settings on record: 25 μM ATP, 10 min incubation at 22° C., average of multiple determinations if made, read-out: FGFR3 Enz FRET IC50. It counts as biochemical. The essentials: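 GST-HIS6-tagged human FGFR3 (R397-T806) was reacted with 100 nM Alexa Fluor 647-Poly-GT substrate and 25 μM ATP plus compound in HEPES/MgCl2/Triton buffer, pH 7.5, 2% DMSO, for 10 min at 22 °C.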

Assay [4] concerns the target recombinant human FGFR1 catalytic domain (amino acids 308-731) (Homo sapiens (Human), UniProt P11362). Kind of assay: FGFR1 enzyme activity assay (LanthaScreen TR-FRET). Type of assay: biochemical. The settings on record: 20 min incubation at 22° C., average of multiple determinations if made, read-out: FGFR1 Enz FRET IC50. The method, boiled down:
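His-tagged FGFR1 kinase domain with 100 nM Alexa Fluor 647-poly-GT peptide and ATP in pH 7.5 HEPES/MgCl2 buffer with 2% DMSO, 20 min at 22 °C. Quenched with EDTA plus 2 nM Eu-PY20 antibody and read after 60 min. IC50 comes from a 4-parameter fit of percent of control.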

Assay [5] deals with dephosphorylated FGFR1 (SEQ ID NO: 1, amino acids 458 to 765) (Homo sapiens (Human), UniProt P11362). Kind of assay: FGFR enzyme binding assay (HTRF tracer displacement), FGFR1. As to conditions: 5 nM dephosphorylated FGFR1, average of multiple determinations if made. The essentials:
as §1

Assay [6] concerns the target FGFR1 (SEQ ID NO: 1, amino acids 458-765) (Homo sapiens (Human), UniProt P11362). Kind of assay: LC/MS FGFR1 kobs assay (covalent protein modification). Type of assay: binding. The settings on record: 500 nM FGFR1, 3 μM compound. The essentials: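 Covalent labeling of FGFR1 kinase domain (aa 458-765) tracked over time by intact-protein LC/MS after formic acid quench. kobs derived by fitting DMSO-normalized percent unmodified FGFR1 to an exponential decay model.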

In assay [7] the target is HEK-293 cells transfected with dox-inducible human wild type FGFR1 (Homo sapiens (Human), UniProt P11362). Kind of assay: FGFR1 pERK cell assay. The settings on record: HEK-293 dox-inducible FGFR1, 1 hour compound, 100 ng/ml FGF-acidic; maximum concentration 5 μM. It counts as cell-based. The method, then: (§2) FGFR1 pERK Cell Assay: • HEK-293 cells transfected with doxycycline(dox)-inducible human wild type FGFR1 (SEQ ID NO: 1) were plated in a collagen or poly-D-lysine coated 96 well flat bottom plates at 4×10^5 cells/well in complete Dulbecco's Modified Eagle Medium (DMEM) containing 10% FBS and 1 μg/ml doxycycline and allowed to attach for 24 h at 37° C., 5% CO2. Cells were treated with compound using 1:3 serial dilutions with a maximum final concentration of 5 μM. Compound was incubated on cells for 1 hour at 37° C., 5% CO2. Cells were then stimulated with a final concentration of 100 ng/ml human FGF-acidic (R&D Systems Cat number 232-FA/CF) for 5 minutes at 37° C., 5% CO2. Medium was removed, and cells were lysed with lysis buffer containing phosphatase and protease inhibitors. Phospho ERK1/2 was measured using the Meso Scale Discovery sandwich assay (Meso Scale Discovery cat. no. K151DWD). The assay captures phospho ERK1/2 and detects with a sulfo-tagged total ERK1/2 antibody. The chemiluminescent signal was read on the Sector Imager Plate reader. 100 POC was determined using no test compound and 0 POC was determined using a control compound. The POC values were fit to a 4-parameter logistic curve as a function of the concentration of the compound, and the IC50 value is the point where the curve crosses 50 POC.
Chain of HEK-293 cells transfected with dox-inducible human wild type FGFR1 (P11362 22-822): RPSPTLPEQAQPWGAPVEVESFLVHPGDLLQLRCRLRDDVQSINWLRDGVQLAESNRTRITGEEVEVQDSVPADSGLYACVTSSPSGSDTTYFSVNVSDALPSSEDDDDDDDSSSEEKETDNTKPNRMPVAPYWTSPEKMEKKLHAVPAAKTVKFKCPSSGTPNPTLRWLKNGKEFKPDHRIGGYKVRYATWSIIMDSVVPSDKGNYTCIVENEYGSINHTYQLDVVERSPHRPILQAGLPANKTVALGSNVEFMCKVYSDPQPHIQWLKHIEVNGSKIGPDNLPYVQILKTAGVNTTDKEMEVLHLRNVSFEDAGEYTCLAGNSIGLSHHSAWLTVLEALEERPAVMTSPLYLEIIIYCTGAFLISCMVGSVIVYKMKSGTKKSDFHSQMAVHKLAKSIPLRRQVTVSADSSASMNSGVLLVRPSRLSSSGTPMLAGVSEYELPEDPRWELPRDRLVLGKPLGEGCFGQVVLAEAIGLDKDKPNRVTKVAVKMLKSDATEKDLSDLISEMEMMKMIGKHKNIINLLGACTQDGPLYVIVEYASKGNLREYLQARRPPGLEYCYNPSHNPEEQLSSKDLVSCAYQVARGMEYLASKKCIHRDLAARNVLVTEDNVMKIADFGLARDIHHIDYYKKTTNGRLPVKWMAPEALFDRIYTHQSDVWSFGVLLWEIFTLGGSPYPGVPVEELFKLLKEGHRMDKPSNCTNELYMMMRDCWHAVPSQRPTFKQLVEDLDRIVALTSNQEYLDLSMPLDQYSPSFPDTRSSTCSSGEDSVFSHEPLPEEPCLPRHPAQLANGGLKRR

For assay [8], the target named is HEK-293 cells transfected with dox-inducible human wild type FGFR2 (Homo sapiens (Human), UniProt P21802). Kind of assay: FGFR2 pFGFR cell assay (ELISA). It counts as cell-based. The settings on record: HEK-293 dox-inducible FGFR2, 1 hour compound, 30 ng/ml FGF-acidic. The method, then: FGFR2 pFGFR Cell Assay: • HEK-293 cells transfected with dox-inducible human wild type FGFR2 (SEQ ID NO: 3) were plated in a collagen or poly-D-lysine coated 96 well flat bottom plates at 4×10^5 cells/well in complete DMEM medium containing 10% FBS and 1 μg/ml doxycycline and allowed to attach for 24 h at 37° C., 5% CO2. Cells were treated with compound using 1:3 serial dilutions with a maximum final concentration of 5 μM. Compound was incubated on cells for 1 hour at 37° C., 5% CO2. Cells were then stimulated with a final concentration of 30 ng/ml human FGF-acidic (R&D Systems Cat number 232-FA/CF) for 5 minutes at 37° C., 5% CO2. Medium was removed and cells were lysed with lysis buffer containing phosphatase and protease inhibitors. Phospho FGFR2 was measured by ELISA (R&D Systems cat. no. DYC684). The ELISA captures total FGFR2 and detects total phospho tyrosine. Optical density was measured for each well using a Versamax reader at a wavelength of 450 nm. 100 POC was determined using no test compounds and 0 POC was determined using a control compound. The POC values were fit to a 4-parameter logistic curve as a function of the concentration of the compound, and the IC50 value is the point where the curve crosses 50 POC.
Chain of HEK-293 cells transfected with dox-inducible human wild type FGFR2 (P21802 22-821): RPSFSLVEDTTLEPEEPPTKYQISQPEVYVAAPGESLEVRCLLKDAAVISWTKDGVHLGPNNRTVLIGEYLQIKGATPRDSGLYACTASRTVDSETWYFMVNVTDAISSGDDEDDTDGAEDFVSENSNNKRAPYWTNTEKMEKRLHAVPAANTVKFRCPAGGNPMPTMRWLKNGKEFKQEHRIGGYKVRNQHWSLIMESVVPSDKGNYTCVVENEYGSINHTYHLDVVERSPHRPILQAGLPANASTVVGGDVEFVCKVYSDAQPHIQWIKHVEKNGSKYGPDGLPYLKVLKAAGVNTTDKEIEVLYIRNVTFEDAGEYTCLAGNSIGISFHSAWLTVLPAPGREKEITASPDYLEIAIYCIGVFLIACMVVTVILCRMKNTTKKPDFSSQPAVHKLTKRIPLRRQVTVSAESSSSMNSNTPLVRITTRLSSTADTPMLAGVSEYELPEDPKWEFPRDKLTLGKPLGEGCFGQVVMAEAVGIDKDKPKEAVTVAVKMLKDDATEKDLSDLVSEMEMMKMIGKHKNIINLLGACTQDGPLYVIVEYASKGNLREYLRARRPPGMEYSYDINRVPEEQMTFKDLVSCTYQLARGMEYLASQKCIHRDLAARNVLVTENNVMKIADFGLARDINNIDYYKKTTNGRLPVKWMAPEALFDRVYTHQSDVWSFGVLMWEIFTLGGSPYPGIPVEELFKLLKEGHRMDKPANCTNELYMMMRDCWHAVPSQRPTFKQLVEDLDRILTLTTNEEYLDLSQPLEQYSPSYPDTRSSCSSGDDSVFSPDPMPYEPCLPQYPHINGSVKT

The target of assay [9] is T1, HEK-293 cells transfected with dox-inducible human wild type FGFR3. Kind of assay: FGFR3 pERK cell assay. It counts as cell-based. As to conditions: HEK-293 dox-inducible FGFR3, 1 hour compound, 100 ng/ml FGF-acidic; maximum concentration 5 μM. The method, then: as §2, with “FGFR3 pERK” for “FGFR1 pERK”, “with dox-inducible” for “with doxycycline(dox)-inducible”, “type FGFR3” for “type FGFR1”, “NO: 5)” for “NO: 1)”, “complete DMEM medium” for “complete Dulbecco's Modified Eagle Medium (DMEM)”, “test compounds” for “test compound”

The target in assay [10] is FGFR3 (SEQ ID NO: 5, amino acids 449-759) (Homo sapiens (Human), UniProt P22607). Kind of assay: LC/MS FGFR3 kobs assay (covalent protein modification). The settings on record: 500 nM FGFR3, 3 μM compound. It counts as binding. The method, boiled down:
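Samples are acid-quenched at set times and read by Q-TOF mass spectrometry. kobs is obtained by fitting DMSO-normalized percent unmodified protein to an exponential decay model.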

In assay [11] the target is recombinant human FGFR2 cytoplasmic domain (amino acids 403-822) (Homo sapiens (Human), UniProt P21802). Kind of assay: FGFR2 enzyme activity assay (LanthaScreen TR-FRET). Type of assay: biochemical. As to conditions: 15 μM ATP, 20 min incubation at 22° C., average of multiple determinations if made, read-out: FGFR2 Enz FRET IC50. The method, boiled down:
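Substrate phosphorylation was read by TR-FRET using Eu-PY20 antibody (60 min, 22 °C) after a 20 min, 22 °C reaction. The reaction used 15 μM ATP, 100 nM fluorescent poly-GT peptide and His-tagged FGFR2 403-822 ([…]) at pH 7.5 with 2% DMSO.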

pIC50: −log10 of the molar value.

Chain of FGFR3 (SEQ ID NO: 5, amino acids 449-759) (P22607 449-759): as the sequence (P22607 449-759) above
Chain of dephosphorylated FGFR1 (SEQ ID NO: 1, amino acids 458 to 765) (P11362 458-765): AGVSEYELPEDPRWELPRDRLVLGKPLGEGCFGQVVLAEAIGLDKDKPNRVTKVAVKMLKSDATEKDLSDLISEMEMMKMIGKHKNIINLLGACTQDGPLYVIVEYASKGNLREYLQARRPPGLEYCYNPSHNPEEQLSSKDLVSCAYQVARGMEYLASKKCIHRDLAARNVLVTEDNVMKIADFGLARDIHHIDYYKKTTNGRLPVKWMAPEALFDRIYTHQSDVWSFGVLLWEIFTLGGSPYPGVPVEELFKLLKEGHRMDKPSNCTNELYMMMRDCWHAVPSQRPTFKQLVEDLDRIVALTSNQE
Chain of recombinant human FGFR3 (amino acids R397-T806) (P22607 397-806): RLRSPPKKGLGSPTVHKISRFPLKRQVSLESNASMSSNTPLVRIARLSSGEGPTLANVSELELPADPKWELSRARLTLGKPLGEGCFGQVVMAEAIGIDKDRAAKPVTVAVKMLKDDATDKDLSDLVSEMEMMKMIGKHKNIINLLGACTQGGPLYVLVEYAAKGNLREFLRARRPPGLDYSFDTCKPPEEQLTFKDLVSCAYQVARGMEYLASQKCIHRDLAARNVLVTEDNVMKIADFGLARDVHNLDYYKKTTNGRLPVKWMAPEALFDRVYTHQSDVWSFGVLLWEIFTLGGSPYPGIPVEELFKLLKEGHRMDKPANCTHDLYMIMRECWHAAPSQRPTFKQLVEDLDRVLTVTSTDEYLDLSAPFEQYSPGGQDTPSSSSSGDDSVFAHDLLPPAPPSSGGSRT
Chain of recombinant human FGFR2 cytoplasmic domain (amino acids 403-822) (P21802 402-821): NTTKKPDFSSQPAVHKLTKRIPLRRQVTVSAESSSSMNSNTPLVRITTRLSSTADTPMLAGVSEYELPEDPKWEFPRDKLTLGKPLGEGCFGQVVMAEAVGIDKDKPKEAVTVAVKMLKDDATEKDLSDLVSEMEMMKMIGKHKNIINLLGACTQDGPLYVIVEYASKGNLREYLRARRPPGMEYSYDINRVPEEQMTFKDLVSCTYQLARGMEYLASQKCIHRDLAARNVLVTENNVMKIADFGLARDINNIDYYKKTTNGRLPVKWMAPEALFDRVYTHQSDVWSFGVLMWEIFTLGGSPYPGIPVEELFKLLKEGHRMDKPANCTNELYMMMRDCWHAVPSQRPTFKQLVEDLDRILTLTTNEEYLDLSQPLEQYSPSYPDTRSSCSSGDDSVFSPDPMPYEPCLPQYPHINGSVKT
Chain of recombinant human FGFR1 catalytic domain (amino acids 308-731) (P11362 other isoform, or with tags, fused parts or gaps): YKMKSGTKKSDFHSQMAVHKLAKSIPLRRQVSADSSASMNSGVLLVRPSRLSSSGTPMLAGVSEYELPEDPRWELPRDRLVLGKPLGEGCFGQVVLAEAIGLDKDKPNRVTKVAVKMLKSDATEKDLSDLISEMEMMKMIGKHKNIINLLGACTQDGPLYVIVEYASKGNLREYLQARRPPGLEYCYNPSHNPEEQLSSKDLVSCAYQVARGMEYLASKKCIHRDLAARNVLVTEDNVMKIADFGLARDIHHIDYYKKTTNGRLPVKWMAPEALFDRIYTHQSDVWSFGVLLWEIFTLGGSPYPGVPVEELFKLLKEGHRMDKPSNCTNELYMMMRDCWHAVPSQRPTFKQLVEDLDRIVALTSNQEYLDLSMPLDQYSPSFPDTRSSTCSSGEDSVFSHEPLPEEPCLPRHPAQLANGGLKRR
T1 sequence (P22607 23-806): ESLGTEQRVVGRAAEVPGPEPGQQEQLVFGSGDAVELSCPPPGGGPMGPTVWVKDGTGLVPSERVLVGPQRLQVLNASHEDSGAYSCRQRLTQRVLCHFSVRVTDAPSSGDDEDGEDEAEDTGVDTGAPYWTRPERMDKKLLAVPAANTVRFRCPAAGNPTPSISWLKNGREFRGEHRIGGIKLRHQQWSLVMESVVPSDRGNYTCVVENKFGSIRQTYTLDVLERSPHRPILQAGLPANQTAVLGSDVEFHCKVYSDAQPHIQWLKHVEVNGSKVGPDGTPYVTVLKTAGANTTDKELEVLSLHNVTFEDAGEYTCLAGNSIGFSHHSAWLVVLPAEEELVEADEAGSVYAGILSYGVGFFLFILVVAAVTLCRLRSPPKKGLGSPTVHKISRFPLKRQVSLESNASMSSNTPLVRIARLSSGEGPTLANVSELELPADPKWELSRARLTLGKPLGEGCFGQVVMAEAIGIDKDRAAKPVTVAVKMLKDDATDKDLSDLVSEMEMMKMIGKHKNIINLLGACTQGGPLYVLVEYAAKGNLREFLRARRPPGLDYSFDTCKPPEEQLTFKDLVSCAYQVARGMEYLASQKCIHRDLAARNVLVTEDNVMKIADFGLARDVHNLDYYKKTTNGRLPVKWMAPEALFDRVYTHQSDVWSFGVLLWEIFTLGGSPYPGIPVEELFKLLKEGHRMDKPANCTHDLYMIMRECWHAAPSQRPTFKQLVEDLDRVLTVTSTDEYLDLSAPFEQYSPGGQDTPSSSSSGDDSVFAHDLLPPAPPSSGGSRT
Chain of FGFR1 (SEQ ID NO: 1, amino acids 458-765) (P11362 458-765): as the sequence (P11362 458-765) above

The pIC50 is −log10 of the IC50, conventionally taken in molar units. Take `COc1cc(-c2cnn(C3CCN(C(=O)C4CN(C(=O)C#CCN(C)C)C4)CC3)c2)cn2ncc(C#N)c12` [Example 176, 6-(1-(1-(1-(4-(dimethylamino)but-2-ynoyl)azetidine-3-carbonyl)piperidin-4-yl)-1H-pyrazol-4-yl)-4-methoxypyrazolo[1,5-a]pyridine-3-carbonitrile]: the negative-log IC50 (pIC50) in assay [1] is 7.82; in assay [2], 7.74; in assay [3], 5.93; in assay [4], 5.92; in [5], 6.87. Moreover, in [6], the “FGFR1 Enz kobs” value was 0.0497 min⁻¹.

As to `COc1cc(-c2cnn(C3CCN(C(=O)C4CN(C(=O)/C=C/CF)C4)CC3)c2)cn2ncc(C#N)c12` [Example 142], the results for the pIC50 in assay [7], in assay [8] and in assay [9] were 6.11, 6.37 and 6.92, respectively.

`COc1cc(-c2cnn(C3CCN(C(=O)/C=C/CN(C)C)CC3)c2)cn2ncc(C#N)c12` [Example 144, (E)-6-(1-(1-(4-(dimethylamino)benoyl)piperidin-4-yl)-1H-pyrazol-4-yl)-4-methoxypyrazol14 5o[1,5-a]pyridine-3-carbonitrile]: the negative-log IC50 (pIC50) in assay [8] was 7.47.

Turning to `C=CS(=O)(=O)N1CCC2(CC1)CC(C(=O)N1CCC(n3cc(-c4cc(OC)c5c(C#N)cnn5c4)cn3)CC1)C2` [Example 195, 4-methoxy-6-(1-(1-(7-(vinylsulfonyl)-7-azaspiro[3.5]nonane-2-carbonyl)piperidin-4-yl)-1H-pyrazol-4-yl)pyrazolo[1,5-a]pyridine-3-carbonitrile], the pIC50 in [1] is 8.40; in assay [2], 7.85; in [3] it was 8.30; in assay [4], 7.72; in assay [5] it was 7.30; in [11] it was 8.15. For the same compound, in assay [10], the “FGFR3 Enz kobs” value was 0.02572 min⁻¹.

For the compound `C=CS(=O)(=O)N1CC(C(=O)N2CCC(n3cc(-c4cc(OC)c5c(C#N)cnn5c4)cn3)CC2)C1` [Example 192, 4-methoxy-6-(1-(1-(1-(vinylsulfonyl)azetidine-3-carbonyl)piperidin-4-yl)-1H-pyrazol-4-yl)pyrazolo[1,5-a]pyridine-3-carbonitrile], the negative-log IC50 (pIC50) is 7.92 in assay [1]; 7.92 in assay [2]; 8.52 in assay [3]; 7.85 in assay [4]; 7.15 in assay [5]; 8.05 in assay [11]. Further, the “FGFR3 Enz kobs” value in [10] came out at 0.1008 min⁻¹.

For the compound `C=CS(=O)(=O)N1CC[C@H](C(=O)N2CCC(n3cc(-c4cc(OC)c5c(C#N)cnn5c4)cn3)CC2)C1` [Example 189, (S)-4-methoxy-6-(1-(1-(1-(vinylsulfonyl)pyrrol-idine-3-carbonyl)piperidin-4-yl)-1H-pyrazol-4-yl)pyrazolo[1,5-a]pyridine-3-carbonitrile], the negative-log IC50 (pIC50) in [1] was 8.52; in assay [2], 8.05; in [3] it was 8.40; in [11] it was 8.52. Besides, the “FGFR3 Enz kobs” value in [10] stood at 0.0728 min⁻¹.
